Data as given in patent publication US11464770B2, “Anticancer pharmaceutical composition” (NATIONAL CANCER CENTER, priority 2016, dated 2022).
“Also recorded” adds a separate entry of the source.

Experiments:
[1] = IV and IP single toxicity test in mice; type: in vivo; conditions: for Percentage (dead subjects), single toxicity evaluation: Mouse
zebrafish = assay: Cardiotoxicity experiment using zebrafish (heart rate, lethality); type: in vivo; conditions: 5 uM, n = 10
[2] = tested on: MBT-2: Mouse bladder transitional cell carcinoma; assay: Cell based assay, cytotoxicity in MBT-2 cells; conditions: 72 hours
Description: (§1) Commercially available bladder cancer, prostate cancer, lung cancer, breast cancer, blood cancer, pancreatic cancer, colorectal cancer, brain cancer, neuroblastoma, melanoma, liver cancer, cervical carcinoma, ovarian cancer, renal cancer, and papilloma cell lines were each treated with trypsin-EDTA and cultured, followed by being seeded in each well of a 96 well plate. After 24 hours of treatment at constant temperature, the respective cells were treated with the candidate compound so that a final concentration became 0 to 2 μM. The treated cells were additionally cultured for 72 hours, and cell viability was measured by using an ATP detection method (CellTiter-Glo® Luminescent Cell Viability Assay, Promega).

[3] = tested on: UM-UC-3: human urinary bladder transitional cell carcinoma; assay: Cell based assay, cytotoxicity in UM-UC-3 cells; conditions: UMUC3, 72 hours
Description: as §1

[4] = tested on: KU-19-19: Bladder carcinoma; assay: Cell based assay, cytotoxicity in KU19-19 cells; conditions: Homo sapiens, 72 hours
Description: as §1

[5] = Cell based assay, cytotoxicity in RT4 papilloma cells (selectivity); parameters: species or system human; conditions: human; RT4 cells (benign), 72 hours
[6] = IV and IP single toxicity tests at 40 mpk, 40 mg/kg

Structure (SMILES)	Dead subjects [1, 6]	General symptoms (feed intake, drinking water intake) [1, 6]	Weight changes [1, 6]	Percentage (dead subjects), single toxicity evaluation ([1]; Female, IP 40 mg/kg)	Percentage (dead subjects), single toxicity evaluation ([1]; Female, IV 40 mg/kg)	Percentage (dead subjects), single toxicity evaluation ([1]; Male, IP 40 mg/kg)	Percentage (dead subjects), single toxicity evaluation ([1]; Male, IV 40 mg/kg)	Changes (%) in heart rate (zebrafish; mean)	Lethality (zebrafish)	IC50 [2]	IC50 [3]	IC50 [4]	IC50 at 72 h [5]
CC(=O)c1c([S+]([O-])Cc2ccccc2)nc2c(Br)ccc(Cl)c2c1O (stereo not shown) [Compound 4]	No dead subjects were observed	Feeding and drinking water intakes were good, and no other abnormal symptoms were observed	no significant weight changes; also recorded: a weight gain was observed, but weight gain was slightly reduced in some subjects	0 (0/2)	0 (0/2)	0 (0/2)	0 (0/2)	88.5%	1/10	–	–	–	–
CC(=O)c1c([S+]([O-])Cc2ccc(-n3cccn3)nc2)[nH]c2c(Br)ccc(Cl)c2c1=O (stereo not shown) [Compound 99, 2-(((6-(1H-pyrazol-1-yl)pyridin-3-yl)methyl)sulfinyl)-3-acetyl-8-bromo-5-chloroquinolin-4(1H)-one]	–	–	–	–	–	–	–	–	–	0.47 µM	0.77 µM	1.12 µM	> 10 µM
